Measured values published in EP0325048A1, “Imidazo- and pyrimido-quinoline, naphthyridine and pyridopyrazine compounds” (SCHERING CORPORATION, priority 1987, dated 1989).
Like-named read-outs stand apart in the source and are kept apart here.

How the values were obtained:
[1] = system: reverse passive Arthus reaction in the pleural cavity of rats; experiment: reverse passive Arthus reaction in the pleural cavity of rats (pleurisy); assay type: in vivo, Male Lewis rats; conditions: Rattus norvegicus, po; for inhibition in vivo at 3.125 mg/kg: 3.125 mg/kg p.o. (Table 4); for inhibition in vivo at 6.25 mg/kg: 6.25 mg/kg p.o. (Table 4); for inhibition in vivo at 12.5 mg/kg: 12.5 mg/kg p.o. (Table 4); for inhibition in vivo at 50 mg/kg: 50 mg/kg p.o. (Table 4); for inhibition in vivo at 1 mg/kg: 1 mg/kg p.o.; for inhibition in vivo at 3 mg/kg: 3 mg/kg p.o.; for inhibition in vivo at 9 mg/kg: 9 mg/kg p.o.
Procedure: Another procedure for testing for acute antiinflammatory activity measures the reverse passive Arthus reaction in the pleural cavity of rats.
Male Lewis rats weighing 180-220 grams were obtained from Charles River Breeding Laboratories, Wilmington, MA and permitted food and water ad libitum. Rooms housing the animals were temperature controlled with a 12 hour light and dark cycle.
Groups of five rats were dosed with drug 30 minutes prior to sensitization with BSA (1 mg/0.2 ml saline). Thirty minutes later the animals were challenged with the IgG fraction of a rabbit anti-bovine serum albumi antibodies (0.1 mg antibody protein per 0.2 ml saline Cooper Biomedical, Malvern, PA) in the pleural cavity. Four hours after challenge, the rats were sacrificed and the exudate harvested from the pleural cavity. The volume of the exudate was measured and the total number of cells determined with a Coulter Counter. [formula]
The results measured as percent inhibition of the infiltration of polymorphonuclear leucocytes (PMNs) and of edena are set forth below in Table 3.

[2] = system: anaphylactic bronchospasm in sensitized guinea pigs; experiment: anaphylactic bronchospasm in sensitized guinea pigs (modified Konzett-Rossler), antigen-induced SRS-A mediated bronchoconstriction; assay type: in vivo; conditions: for % Inhibition of Broncho-constriction: 2 hours before antigen challenge, inhibition of increase in intratracheal pressure; for % Inhibition of Bronchoconstriction: comparison compound (Table 2)
Procedure: The anti-allergy method of this invention is identified by tests which measure a compound's inhibition of anaphylactic bronchospasm in sensitized guinea pigs having antigen-induced SRS-A mediated bronchoconstriction. Allergic bronchospasm was measured in actively sensitized guinea pigs by a modification of the procedure of Konzett and Rossler, Arch. Exptl. Pathol. […] Male Hartley guinea pigs were sensitized with 5 mg ovalbumin injected ip and 5 mg injected sc in 1 ml saline on day 1 and 5mg ovalbumin injected ip on day 4. The sensitized animals were used 3-4 weeks later. To measure anaphylactic bronchospasm, sensitized guinea pigs were fasted overnight and the following morning were anesthetized with 0.9 ml/kg ip of dialurethane. The trachea and jugular vein were cannulated and the animals were ventilated by a Harvard rodent respirator. A side arm to the tracheal cannula was connected to a Harvard pressure transducer to obtain a continuous measure of intratracheal pressure. An increase in intratracheal pressure was taken as a measure of bronchoconstriction. Each guinea pig was injected iv with 1mg/kg propranolol, 5 mg/kg indomethacin and 2 mg/kg mepyramine given together in a volume of 1 ml/kg. Fifteen minutes later, the animals were challenged with antigen (0.5 per cent ovalbumin) delivered as an aerosol generated from a DeVilbiss Model 65 ultrasonic nebulizer and delivered through the tracheal cannula for 30 seconds. Bronchoconstriction was measured as the peak increase in intratracheal pressure occurring within 15 minutes after antigen challenge.

[3] = system: Reversed Passive Arthus Reaction (RPAR)-PAW; experiment: Reversed Passive Arthus Reaction (RPAR)-PAW technique; assay type: in vivo, male Lewis rats; conditions: 25 mg/kg (p.o.); paw volume at 2 hours post-challenge
Procedure: The compounds of this invention are also useful for the treatment of inflammation; thus, they are useful for the treatment of: arthritis, bursitis, tendonitis, gout and other inflammatory conditions. […] The potency of the compounds is determined using indomethacin as the standard. On the basis of the test results, an oral dosage range of about 5 milligrams per kilogram of body weight per day to about 50 milligrams per kilogram of body weight per day in divided doses taken at about 4 hour intervals is recommended, again with any of the conventional modes of administration for treatment of inflammation being suitable.
Male Lewis inbred albino rats weighing 180-220 grams obtained from Charles River Breeding Laboratories are used in these experiments. The rats are housed 3 animals/cage and food and water are allowed ad libitum. The animals are numbered 1-3 in each cage and color marked for identification purposes.
All reagents and drugs are prepared just prior to the study. […]
Groups of animals (6/group) are dosed with drug in MC by gavage one hour prior to sensitization with BSA. […] The volume of mercury displaced is converted to weight and recorded. […] Paw volumes are also recorded with a plethysmograph during the development of the inflammation at 2 hours post-challenge.

[4] = 4 h, read-out: Pleurisy (% Inhibition) Edema
[5] = 4 h, read-out: Pleurisy (% Inhibition) PMNs
[6] = 25 mg/kg p.o., exudate 4 hours after challenge, read-out: Pleurisy (% Inhibition) Edema
[7] = 25 mg/kg p.o., exudate 4 hours after challenge, read-out: Pleurisy (% Inhibition) PMNs

## C[C@]12C=CC(=O)C=C1CC[C@@H]1[C@@H]2C(=O)C[C@@]2(C)[C@H]1CC[C@]2(O)C(=O)CO [Prednisone, prednisone, reference compound]
[1]; [4]
  inhibition in vivo at 3.125 mg/kg: 2%
  inhibition in vivo at 6.25 mg/kg: 17%
  inhibition in vivo at 12.5 mg/kg: 27%
  inhibition in vivo at 50 mg/kg: 58%
[1]; [5]
  inhibition in vivo at 3.125 mg/kg: 7%
  inhibition in vivo at 6.25 mg/kg: 16%
  inhibition in vivo at 12.5 mg/kg: 20%
  inhibition in vivo at 50 mg/kg: 42%
[1]; 4 h, 25 mg/kg p.o. (Table 4), read-out: Pleurisy (% Inhibition) Edema
  inhibition in vivo at 25 mg/kg: 44%
[1]; 4 h, 25 mg/kg p.o. (Table 4), read-out: Pleurisy (% Inhibition) PMNs
  inhibition in vivo at 25 mg/kg: 25%

## CN1CCn2c1c(-c1ccccc1)c1ncccc1c2=O [R^3=CH3, R^4=phenyl, n=2, 2,3-dihydro-1-methyl-10-phenylimidazo[1,2-g][1,6]naphthyridin-5(1H)-one]
[1]; [6]
  inhibition in vivo at 25 mg/kg: 56%
[1]; [7]
  inhibition in vivo at 25 mg/kg: 69%

## O=c1c2cccnc2c(-c2cccc(Cl)c2)c2n1CCCN2 [R^3=H, R^4=3-chloro phenyl, n=3, 11-(3-chlorophenyl)-1,2,3,4-tetrahydro-6H-pyrimido[1,2-g][1,6]naphthyridin-6-one]
[2]; 5 mg/kg p.o.
  % Inhibition of Broncho-constriction: 54%
[1]; [6]
  inhibition in vivo at 25 mg/kg: 76%
[1]; [7]
  inhibition in vivo at 25 mg/kg: 82%

## O=c1c2cccnc2c(-c2cccc(Cl)c2)c2n1CCN2 [R^3=H, R^4=3-chloro-phenyl, n=2, 10-(3-chlorophenyl)-2,3-dihydroimidazo[1,2-g][1,6]naphthyridin-5(1H)-one]
[2]; 5 mg/kg p.o.
  % Inhibition of Broncho-constriction: 43%

## COc1cccc(-c2c3n(c(=O)c4cccnc24)CCN3)c1 [R^3=H, R^4=3-methoxy-phenyl, n=2, 2,3-dihydro-10-(3-methoxyphenyl)imidazo-[1,2-g][1,6]naphthyridin-5(1H)-one]
[2]; 5 mg/kg p.o.
  % Inhibition of Broncho-constriction: 61%
[1]; [6]
  inhibition in vivo at 25 mg/kg: 69%
[1]; [7]
  inhibition in vivo at 25 mg/kg: 79%

## O=c1c2cccnc2c(-c2ccc(Cl)cc2)c2n1CCN2 [R^3=H, R^4=4-chloro-phenyl, n=2, 10-(4-chlorophenyl)-2,3-dihydro-imidazo[1,2-g][1,6]naphthyridin-5(1H)-one]
[2]; 5 mg/kg p.o.
  % Inhibition of Broncho-constriction: 11%
[1]; [6]
  inhibition in vivo at 25 mg/kg: 92%
[1]; [7]
  inhibition in vivo at 25 mg/kg: 95%

## COc1ccc(-c2c3n(c(=O)c4cccnc24)CCN3)cc1 [R^3=H, R^4=4-methoxy-phenyl, n=2, 2,3-dihydro-10-(4-methoxyphenyl)imidazo-[1,2-g][1,6]naphthyridin-5(1H)-one]
[2]; 10 mg/kg p.o.
  % Inhibition of Broncho-constriction: 8%
[1]; [6]
  inhibition in vivo at 25 mg/kg: 42%
[1]; [7]
  inhibition in vivo at 25 mg/kg: 49%

## Cc1ccc(-c2c3n(c(=O)c4cccnc24)CCN3)cc1 [R^3=H, R^4=4-methyl phenyl, n=2, 2,3-dihydro-10(4-methylphenyl)imidazo-[1,2-g][1,6]naphthyridin-5(1H)-one]
[2]; 5 mg/kg p.o.
  % Inhibition of Broncho-constriction: 1%
[1]; [6]
  inhibition in vivo at 25 mg/kg: 42%
[1]; [7]
  inhibition in vivo at 25 mg/kg: 53%
[3]
  inhibition: 42%

## O=c1c2cccnc2c(-c2cccc3ccccc23)c2n1CCN2 [R^3=H, R^4=naphthyl, n=2, 2,3-dihydro-10-(1-naphthalenyl)imidazo-[1,2-g][1,6]naphthyridin-5(1H)-one]
[1]; [6]
  inhibition in vivo at 25 mg/kg: 28%
[1]; [7]
  inhibition in vivo at 25 mg/kg: 50%

## O=c1c2cccnc2c(-c2ccccc2)c2n1CCN2 [R^3=H, R^4=phenyl, n=2, 2,3-dihydro-10-phenylimidazo[1,2-g][1,6]-naphthyridin-5(1H)-one]
[2]; 10 mg/kg p.o.
  % Inhibition of Broncho-constriction: 16%
[1]; [4]
  inhibition in vivo at 1 mg/kg: 9%
  inhibition in vivo at 3 mg/kg: 25%
  inhibition in vivo at 9 mg/kg: 34%
[1]; [5]
  inhibition in vivo at 1 mg/kg: 3%
  inhibition in vivo at 3 mg/kg: 28%
  inhibition in vivo at 9 mg/kg: 54%
[1]; [6]
  inhibition in vivo at 25 mg/kg: 55%
[1]; [7]
  inhibition in vivo at 25 mg/kg: 90%
[3]
  inhibition: 92%

## Cn1c(=O)c2[nH]cnc2n(C)c1=O [aminophylline, reference compound]
[2]; 18 mg/kg p.o.
  % Inhibition of Bronchoconstriction: 21%
[2]; 53 mg/kg p.o.
  % Inhibition of Bronchoconstriction: 58%

## C[C@@H]1C[C@H]2[C@@H]3CCC4=CC(=O)C=C[C@]4(C)[C@@]3(F)[C@@H](O)C[C@]2(C)[C@@]1(O)C(=O)CO [dexamethasone, reference compound]
[2]; 3 mg/kg p.o.
  % Inhibition of Bronchoconstriction: 38%
[2]; 10 mg/kg p.o.
  % Inhibition of Bronchoconstriction: 46%

## CC(C)(C)c1ccc(C(O)CCCN2CCC(C(O)(c3ccccc3)c3ccccc3)CC2)cc1 (stereo not shown) [terfenadine, reference compound]
[2]; 30 mg/kg p.o.
  % Inhibition of Bronchoconstriction: 5%
